Measured values: patent US12077503B2, “Substituted cyclic amides and their use as herbicides” (FMC CORPORATION, priority 2015, dated 2024)

What was measured:
Format in all cases: in vivo
[1] = system: corn (Zea mays); assay: Test A postemergence; details: for Corn plant response rating: 125 g ai/ha, postemergence, visual injury rating on 0 to 100 scale (0 no effect, 100 complete control), approx. 10 d; for Plant response rating, Corn: Postemergence, 500 g ai/ha, 0 to 100 scale where 0 is no effect and 100 is complete control
Method in brief: (§1)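 Preemergence soil spray on seeded pots or post-emergence spray on 1–2 leaf plants, in loam–sand blend. Greenhouse ~10 d. Visual rating 0–100 against untreated plants.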

[2] = system: wheat (Triticum aestivum); assay: Test A postemergence; details: for Wheat plant response rating: 125 g ai/ha, postemergence, visual injury rating on 0 to 100 scale (0 no effect, 100 complete control), approx. 10 d; for Plant response rating, Wheat: Postemergence, 500 g ai/ha, 0 to 100 scale where 0 is no effect and 100 is complete control
Method in brief: as §1

[3] = system: Kochia (Kochia scoparia); assay: Test A postemergence; details: for Kochia plant response rating: 125 g ai/ha, postemergence, visual injury rating on 0 to 100 scale (0 no effect, 100 complete control), approx. 10 d; for Plant response rating, Kochia: Postemergence, 500 g ai/ha, 0 to 100 scale where 0 is no effect and 100 is complete control
Method in brief: as §1

[4] = system: ryegrass, Italian (Italian ryegrass, Lolium multiflorum); assay: Test A postemergence; details: for Ryegrass, Italian plant response rating: 125 g ai/ha, postemergence, visual injury rating on 0 to 100 scale (0 no effect, 100 complete control), approx. 10 d; for Plant response rating, Ryegrass, Italian: Postemergence, 500 g ai/ha, 0 to 100 scale where 0 is no effect and 100 is complete control
Method in brief: as §1

[5] = system: giant foxtail (Setaria faberii); assay: Test A postemergence; details: for Foxtail, Giant plant response rating: 125 g ai/ha, postemergence, visual injury rating on 0 to 100 scale (0 no effect, 100 complete control), approx. 10 d; for Plant response rating, Foxtail, Giant: Postemergence, 500 g ai/ha, 0 to 100 scale where 0 is no effect and 100 is complete control
Method in brief: as §1

[6] = system: blackgrass (Alopecurus myosuroides); assay: Test A postemergence; details: for Blackgrass plant response rating: 125 g ai/ha, postemergence, visual injury rating on 0 to 100 scale (0 no effect, 100 complete control), approx. 10 d; for Plant response rating, Blackgrass: Postemergence, 500 g ai/ha, 0 to 100 scale where 0 is no effect and 100 is complete control
Method in brief: as §1

[7] = system: ragweed (common ragweed, Ambrosia elatior); assay: Test A postemergence; details: for Ragweed plant response rating: 125 g ai/ha, postemergence, visual injury rating on 0 to 100 scale (0 no effect, 100 complete control), approx. 10 d; for Plant response rating, Ragweed: Postemergence, 500 g ai/ha, 0 to 100 scale where 0 is no effect and 100 is complete control
Method in brief: as §1

[8] = system: pigweed (Amaranthus retroflexus); assay: Test A postemergence; details: for Pigweed plant response rating: 125 g ai/ha, postemergence, visual injury rating on 0 to 100 scale (0 no effect, 100 complete control), approx. 10 d; for Plant response rating, Pigweed: Postemergence, 500 g ai/ha, 0 to 100 scale where 0 is no effect and 100 is complete control
Method in brief: as §1

[9] = system: Galium (catchweed bedstraw, Galium aparine); assay: Test A postemergence; details: for Galium plant response rating: 125 g ai/ha, postemergence, visual injury rating on 0 to 100 scale (0 no effect, 100 complete control), approx. 10 d; for Plant response rating, Galium: Postemergence, 500 g ai/ha, 0 to 100 scale where 0 is no effect and 100 is complete control
Method in brief: as §1

[10] = system: barnyardgrass (Echinochloa crus-galli); assay: Test A postemergence; details: for Barnyardgrass plant response rating: 125 g ai/ha, postemergence, visual injury rating on 0 to 100 scale (0 no effect, 100 complete control), approx. 10 d; for Plant response rating, Barnyardgrass: Postemergence, 500 g ai/ha, 0 to 100 scale where 0 is no effect and 100 is complete control
Method in brief: as §1

[11] = system: Kochia (Kochia scoparia); assay: Test A preemergence; details: Preemergence; for Plant response rating, Kochia: 125 g ai/ha, visual injury after approximately 10 d, 0 to 100 scale where 0 is no effect and 100 is complete control; for Kochia plant response rating (0 to 100 scale, 0 is no effect, 100 is complete control): 500 g ai/ha, visual injury approx. 10 d
Method in brief: as §1

[12] = system: ryegrass, Italian (Italian ryegrass, Lolium multiflorum); assay: Test A preemergence; details: Preemergence; for Plant response rating, Ryegrass, Italian: 125 g ai/ha, visual injury after approximately 10 d, 0 to 100 scale where 0 is no effect and 100 is complete control; for Ryegrass, Italian plant response rating (0 to 100 scale, 0 is no effect, 100 is complete control): 500 g ai/ha, visual injury approx. 10 d
Method in brief: as §1

[13] = system: giant foxtail (Setaria faberii); assay: Test A preemergence; details: Preemergence; for Plant response rating, Foxtail, Giant: 125 g ai/ha, visual injury after approximately 10 d, 0 to 100 scale where 0 is no effect and 100 is complete control; for Foxtail, Giant plant response rating (0 to 100 scale, 0 is no effect, 100 is complete control): 500 g ai/ha, visual injury approx. 10 d
Method in brief: as §1

[14] = system: ragweed (common ragweed, Ambrosia elatior); assay: Test A preemergence; details: Preemergence; for Plant response rating, Ragweed: 125 g ai/ha, visual injury after approximately 10 d, 0 to 100 scale where 0 is no effect and 100 is complete control; for Ragweed plant response rating (0 to 100 scale, 0 is no effect, 100 is complete control): 500 g ai/ha, visual injury approx. 10 d
Method in brief: as §1

[15] = system: pigweed (Amaranthus retroflexus); assay: Test A preemergence; details: Preemergence; for Plant response rating, Pigweed: 125 g ai/ha, visual injury after approximately 10 d, 0 to 100 scale where 0 is no effect and 100 is complete control; for Pigweed plant response rating (0 to 100 scale, 0 is no effect, 100 is complete control): 500 g ai/ha, visual injury approx. 10 d
[16] = system: barnyardgrass (Echinochloa crus-galli); assay: Test A preemergence; details: Preemergence; for Plant response rating, Barnyardgrass: 125 g ai/ha, visual injury after approximately 10 d, 0 to 100 scale where 0 is no effect and 100 is complete control; for Barnyardgrass plant response rating (0 to 100 scale, 0 is no effect, 100 is complete control): 500 g ai/ha, visual injury approx. 10 d
Method in brief: as §1

[17] = system: rice (Oryra sativa); assay: Test B flooded paddy test; details: Flood, 250 g ai/ha; 0 to 100 scale where 0 is no effect and 100 is complete control; 13 to 15 d
Method in brief: (§2)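 Response scored visually against untreated controls, 0 = no effect and 100 = complete control, 13–15 d after treatment in the greenhouse. Compounds added to paddy water held 3 cm above soil surface. Treatment given at 2-leaf stage.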

[18] = system: ducksalad (Heteranthera limosa); assay: Test B flooded paddy test; details: Flood, 250 g ai/ha; 0 to 100 scale where 0 is no effect and 100 is complete control; 13 to 15 d
Method in brief: as §2

[19] = system: sedge, umbrella (small-flower umbrella sedge, Cyperus difformis); assay: Test B flooded paddy test; details: Flood, 250 g ai/ha; 0 to 100 scale where 0 is no effect and 100 is complete control; 13 to 15 d
Method in brief: as §2

[20] = system: barnyardgrass (Echinochloa crus-galli); assay: Test B flooded paddy test; details: Flood, 250 g ai/ha; 0 to 100 scale where 0 is no effect and 100 is complete control; 13 to 15 d
Method in brief: as §2

O=C1NCC(c2cccc(F)c2F)C1C(=O)Nc1ccccc1F (stereo not drawn) [Compound 494]
Corn plant response rating [1]: 0
Plant response rating, Corn [1]: 0
Wheat plant response rating [2]: 0
Plant response rating, Wheat [2]: 0
Kochia plant response rating [3]: 0
Plant response rating, Kochia [3]: 0
Ryegrass, Italian plant response rating [4]: 0
Plant response rating, Ryegrass, Italian [4]: 0
Foxtail, Giant plant response rating [5]: 20
Plant response rating, Foxtail, Giant [5]: 60
Blackgrass plant response rating [6]: 0
Plant response rating, Blackgrass [6]: 0
Ragweed plant response rating [7]: 0
Plant response rating, Ragweed [7]: 0
Pigweed plant response rating [8]: 0
Plant response rating, Pigweed [8]: 0
Galium plant response rating [9]: 0
Plant response rating, Galium [9]: 0
Barnyardgrass plant response rating [10]: 30
Plant response rating, Barnyardgrass [10]: 80
Plant response rating, Kochia [11]: 0
Kochia plant response rating (0 to 100 scale, 0 is no effect, 100 is complete control) [11]: 0
Plant response rating, Ryegrass, Italian [12]: 0
Ryegrass, Italian plant response rating (0 to 100 scale, 0 is no effect, 100 is complete control) [12]: 0
Plant response rating, Foxtail, Giant [13]: 80
Foxtail, Giant plant response rating (0 to 100 scale, 0 is no effect, 100 is complete control) [13]: 90
Plant response rating, Ragweed [14]: 0
Ragweed plant response rating (0 to 100 scale, 0 is no effect, 100 is complete control) [14]: 0
Plant response rating, Pigweed [15]: 0
Pigweed plant response rating (0 to 100 scale, 0 is no effect, 100 is complete control) [15]: 0
Plant response rating, Barnyardgrass [16]: 70
Barnyardgrass plant response rating (0 to 100 scale, 0 is no effect, 100 is complete control) [16]: 90
Plant response rating, Rice [17]: 0
Plant response rating, Ducksalad [18]: 30
Plant response rating, Sedge, Umbrella [19]: 0
Plant response rating, Barnyardgrass [20]: 20

COCc1cccc(C2CNC(=O)C2C(=O)Nc2ccc(F)cc2F)c1 (stereo not drawn) [Compound 499]
Corn plant response rating [1]: 0
Plant response rating, Corn [1]: 0
Wheat plant response rating [2]: 0
Plant response rating, Wheat [2]: 0
Kochia plant response rating [3]: 0
Plant response rating, Kochia [3]: 0
Ryegrass, Italian plant response rating [4]: 0
Plant response rating, Ryegrass, Italian [4]: 0
Foxtail, Giant plant response rating [5]: 20
Plant response rating, Foxtail, Giant [5]: 30
Blackgrass plant response rating [6]: 0
Plant response rating, Blackgrass [6]: 0
Ragweed plant response rating [7]: 0
Plant response rating, Ragweed [7]: 0
Pigweed plant response rating [8]: 0
Plant response rating, Pigweed [8]: 0
Galium plant response rating [9]: 0
Plant response rating, Galium [9]: 40
Barnyardgrass plant response rating [10]: 30
Plant response rating, Barnyardgrass [10]: 80
Plant response rating, Kochia [11]: 0
Kochia plant response rating (0 to 100 scale, 0 is no effect, 100 is complete control) [11]: 30
Plant response rating, Ryegrass, Italian [12]: 0
Ryegrass, Italian plant response rating (0 to 100 scale, 0 is no effect, 100 is complete control) [12]: 0
Plant response rating, Foxtail, Giant [13]: 30
Foxtail, Giant plant response rating (0 to 100 scale, 0 is no effect, 100 is complete control) [13]: 90
Plant response rating, Ragweed [14]: 0
Ragweed plant response rating (0 to 100 scale, 0 is no effect, 100 is complete control) [14]: 0
Plant response rating, Pigweed [15]: 0
Pigweed plant response rating (0 to 100 scale, 0 is no effect, 100 is complete control) [15]: 0
Plant response rating, Barnyardgrass [16]: 30
Barnyardgrass plant response rating (0 to 100 scale, 0 is no effect, 100 is complete control) [16]: 90
Plant response rating, Rice [17]: 15
Plant response rating, Ducksalad [18]: 80
Plant response rating, Sedge, Umbrella [19]: 0
Plant response rating, Barnyardgrass [20]: 50

CC(=O)N1CC(c2cccc(C(F)(F)F)c2)C(C(=O)Nc2ccccc2F)C1=O (stereo not drawn) [Compound 503]
Corn plant response rating [1]: 20
Plant response rating, Corn [1]: 80
Wheat plant response rating [2]: 0
Plant response rating, Wheat [2]: 40
Kochia plant response rating [3]: 0
Plant response rating, Kochia [3]: 0
Ryegrass, Italian plant response rating [4]: 40
Plant response rating, Ryegrass, Italian [4]: 70
Foxtail, Giant plant response rating [5]: 90
Plant response rating, Foxtail, Giant [5]: 90
Blackgrass plant response rating [6]: 30
Plant response rating, Blackgrass [6]: 70
Ragweed plant response rating [7]: 30
Plant response rating, Ragweed [7]: 30
Pigweed plant response rating [8]: 0
Plant response rating, Pigweed [8]: 0
Galium plant response rating [9]: 30
Plant response rating, Galium [9]: 70
Barnyardgrass plant response rating [10]: 90
Plant response rating, Barnyardgrass [10]: 90
Plant response rating, Kochia [11]: 0
Kochia plant response rating (0 to 100 scale, 0 is no effect, 100 is complete control) [11]: 20
Plant response rating, Ryegrass, Italian [12]: 0
Ryegrass, Italian plant response rating (0 to 100 scale, 0 is no effect, 100 is complete control) [12]: 50
Plant response rating, Foxtail, Giant [13]: 90
Foxtail, Giant plant response rating (0 to 100 scale, 0 is no effect, 100 is complete control) [13]: 90
Plant response rating, Ragweed [14]: 0
Ragweed plant response rating (0 to 100 scale, 0 is no effect, 100 is complete control) [14]: 0
Plant response rating, Pigweed [15]: 0
Pigweed plant response rating (0 to 100 scale, 0 is no effect, 100 is complete control) [15]: 40
Plant response rating, Barnyardgrass [16]: 90
Barnyardgrass plant response rating (0 to 100 scale, 0 is no effect, 100 is complete control) [16]: 90
Plant response rating, Rice [17]: 0
Plant response rating, Ducksalad [18]: 85
Plant response rating, Sedge, Umbrella [19]: 0
Plant response rating, Barnyardgrass [20]: 45
